Results reported in PubChem BioAssay (NCI).
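Assay format: 96-well plates, 48-hour exposure. GI50 = concentration required for 50% inhibition of growth. TGI is the concentration that stops growth completely.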

Key:
Assay in all cases: DTP human tumour cell line panel, 48 h
[1] = tested on: COLO 205 colon
[2] = tested on: IGROV1 ovarian
[3] = tested on: HCT-116 colon
[4] = tested on: 786-0 renal
[5] = tested on: EKVX NSCLC
[6] = tested on: CAKI-1 renal
[7] = tested on: SK-MEL-28 melanoma
[8] = tested on: UACC-62 melanoma
[9] = tested on: M14 melanoma
[10] = tested on: SF-268 CNS

Structure (SMILES) | TGI [1] | TGI [2] | TGI [3] | TGI [4] | TGI [5] | TGI [6] | TGI [7] | TGI [8] | TGI [9] | TGI [10] | GI50 [1] | GI50 [2] | GI50 [3] | GI50 [4] | GI50 [5] | GI50 [6] | GI50 [7] | GI50 [8] | GI50 [9] | GI50 [10]
COC(=O)C(=O)C(C(=O)C=C(C)C)C(=O)C(=O)Nc1cccc(C(C)=O)c1 (configuration not stated) | > 100 µM | > 100 µM | > 100 µM | > 100 µM | > 100 µM | > 100 µM | > 100 µM | > 100 µM | > 100 µM | > 100 µM | – | – | – | – | – | – | – | – | – | –
CCN1C(=O)N(CC)C2C1NN=c1s/c(=C3\C(=O)N(C)c4ccccc43)c(=O)n12 (configuration not stated) | 55.1 µM | 43.7 µM | > 43.6 µM | > 100 µM | > 100 µM | 97.4 µM | > 100 µM | > 100 µM | > 58.3 µM | > 100 µM | 1.08 µM | 0.891 µM | 1.1 µM | 1.94 µM | 3.25 µM | 0.448 µM | 3.09 µM | 0.431 µM | 0.803 µM | 10.8 µM
O=C1C(=O)N(C2C3CC4CC(C3)CC2C4)C(=O)C(=O)C1c1nc2ccccc2o1 (configuration not stated) | > 100 µM | > 100 µM | > 100 µM | > 100 µM | > 100 µM | > 100 µM | > 100 µM | > 100 µM | > 100 µM | > 100 µM | – | – | – | – | – | – | – | – | – | –
C=C(C)[C@@H]1CC[C@@]2(C)[C@H]1[C@H]1CCC3[C@@]4(C)CC[C@H](O)C(C)(C)[C@@H]4CC[C@@]3(C)[C@]1(C)C[C@@H]2O (some centres not stated) | – | > 100 µM | > 100 µM | > 100 µM | > 100 µM | > 100 µM | > 100 µM | – | > 100 µM | > 100 µM | – | – | – | – | – | – | – | – | – | –
Cn1cc(-c2ccc(CNc3cc(-c4cnc5cc(OCCCN6CCCC6)ccn45)ncn3)cc2)cn1 | 25.9 µM | 4.27 µM | 2.98 µM | 2.91 µM | 9.59 µM | 3.15 µM | 3.17 µM | 29.2 µM | 3.2 µM | 4.19 µM | 10.6 µM | 2.05 µM | 1.57 µM | 1.49 µM | 3.01 µM | 1.65 µM | 1.65 µM | 13.2 µM | 1.74 µM | 1.9 µM
C/C(=N\NC(N)=O)C(CN(C)C)C(c1ccccc1)c1c(O)c2ccccc2oc1=O (configuration not stated) | > 100 µM | > 100 µM | > 100 µM | > 100 µM | > 100 µM | > 100 µM | > 100 µM | > 100 µM | > 100 µM | > 100 µM | – | – | – | – | – | – | – | – | – | –
CCSc1nc(COC(=O)NC)c(COC(=O)NC)n1C | > 85.1 µM | > 93.1 µM | > 100 µM | > 100 µM | > 100 µM | > 78.2 µM | > 100 µM | 51.2 µM | > 83 µM | > 100 µM | – | – | – | – | – | – | – | – | – | –
CCOC(=O)N1CCN(S(=O)(=O)c2oc(-c3ccc(Cl)cc3)nc2C#N)CC1 | 4.25 µM | 3.47 µM | 3.7 µM | 3.24 µM | 27.2 µM | 3.14 µM | 4.23 µM | 12.7 µM | 3.67 µM | 6.75 µM | 2.05 µM | 1.75 µM | 1.74 µM | 1.65 µM | 9.71 µM | 1.75 µM | 2.12 µM | 3.07 µM | 1.59 µM | 2.56 µM
C=C(N=[N+]=[N-])c1cn(C2CC(O)C(CO)O2)c(=O)[nH]c1=O (configuration not stated) | > 100 µM | > 100 µM | > 100 µM | > 100 µM | > 100 µM | > 100 µM | > 100 µM | > 100 µM | > 100 µM | – | – | – | – | – | – | – | – | – | – | –
CCOC(=O)N1C2C=C(C)C(C3C(C)C(=O)N31)N(C(=O)c1ccccc1)O2 (configuration not stated) | > 100 µM | > 100 µM | > 100 µM | > 100 µM | > 100 µM | > 100 µM | > 100 µM | > 100 µM | > 100 µM | > 100 µM | – | – | – | – | – | – | – | – | – | –
Clc1ccc(CN2COc3c(cc(Cl)c4cccnc34)C2)cc1 | 31.7 µM | 8 µM | 5.49 µM | 9.41 µM | 14.2 µM | 12.6 µM | 7.38 µM | 4.11 µM | 3.82 µM | 12.7 µM | – | – | – | – | – | – | – | – | – | –
Cc1c2ccncc2c(C)c2c1[nH]c1ccc(OC(C)(C)C)cc12 | 3.12 µM | 26.8 µM | 3.36 µM | 2.96 µM | 36.2 µM | 3.4 µM | 3.77 µM | 5.43 µM | 14.9 µM | 25.5 µM | – | – | – | – | – | – | – | – | – | –
C=CCc1ccc(O)c(-c2cc(C3Oc4c(-c5cc(CC=C)ccc5O)cc(O)cc4[C@@H]3CO)ccc2O)c1 (some centres not stated) | > 100 µM | 51.6 µM | 43.3 µM | > 100 µM | > 100 µM | > 100 µM | 76.8 µM | 89.1 µM | > 100 µM | 82.5 µM | – | – | – | – | – | – | – | – | – | –
CN(C)c1ccc(N=Nc2c([O-])ccc3ccccc23)cc1.[C-]#[O+].[C-]#[O+].[Ir] | 31.6 µM | 52.7 µM | 38.4 µM | > 56.3 µM | 64.1 µM | 33.5 µM | 65.4 µM | 55.6 µM | 46.6 µM | 76.6 µM | 16.5 µM | 17.9 µM | 19.5 µM | 26.4 µM | 20.6 µM | 16.2 µM | 26.3 µM | 21.5 µM | 21.9 µM | 26.9 µM
Nc1nc(OCc2ccccc2)nc2[nH]ncc12 | 40.4 µM | > 100 µM | 39 µM | 44.4 µM | > 100 µM | 33.2 µM | 35.2 µM | 32.1 µM | > 100 µM | 48.4 µM | 18.5 µM | 32.5 µM | 19.7 µM | 18.7 µM | 38.6 µM | 11.1 µM | 17 µM | 14.4 µM | 36.6 µM | 17.1 µM
CC(C)OC(=O)c1ccc2[nH]c(O)c(C(=Nc3ccc(N(C)C(=O)CN4CCN(C)CC4)cc3)c3ccccc3)c2c1 | 1.41 µM | 1.24 µM | 1.28 µM | 1.97 µM | 2.49 µM | 1.12 µM | 2.52 µM | 3.01 µM | 1.9 µM | 2 µM | 0.285 µM | 0.0764 µM | 0.149 µM | 0.327 µM | 1.11 µM | 0.0952 µM | 1.15 µM | 1.32 µM | 0.451 µM | 0.387 µM
